The values that follow come from US12551492B2, “Enthesis healing” (UNIVERSITY OF UTAH RESEARCH FOUNDATION, priority 2020, dated 2026).

For data set [1] the following is noted: cited from earlier work.
The next data set deals with rotator cuff repair. To be noted: mouse and rat models; cited from earlier work.
The test system of data set [2] is chondrogenic, angiogenic, osteogenic, tendon maturation/modulation, and hormonal genes. The experiment in a line: Mouse rotator cuff repair, RNA expression analysis at 2 weeks. It counts as in vivo, male wild type mice. To be noted: Repair+DES vs Repair Only, p<0.02. An excerpt: (§1) Twenty-nine male wild type mice were randomly divided into three study groups. Group 1 (Control) consisted of unoperated mice which provided intact “control” shoulders with normal rotator cuff tendons. Group 2 (Repair Only) was a surgical repair group injected with the drug carrier used in Group 3. Group 3 (Repair+DES) was a surgical repair group injected with diethylstilbestrol (DES). Twenty-three mice were sacrificed four weeks post-operatively and used for histological analyses including scanning electron & light microscopy. The six remaining mice (n=3 Repair Only and n=3 Repair+DES) were sacrificed at 2 weeks for RNA expression analysis of various chondrogenic, angiogenic, osteogenic, tendon maturation/modulation, and hormonal genes.

The subject of a further data set is rotator cuff enthesis. The experiment in a line: Mouse rotator cuff repair, histological analyses four weeks post-operatively. The format is in vivo, male wild type mice.
From the text: as §1

Data set [3] can be described thus: Multi-payor national database study: infection after rotator cuff repair. It counts as in vivo. As to conditions: patients receiving testosterone replacement vs non-testosterone replacement patients, adjusted. Here is the method: A study within a multi-payor large national database with over 160 million individuals was conducted including 292,666 patients who underwent RCR and an equal number of controls matched for age, sex, year of surgery, and years within the database.
The higher testosterone levels found in males as compared to females increase the presence of Cutibacterium acnes on the skin.

Setting [4] is: Table 1, available forms of estrogen.
The mark [5] stands for this setting: Table 2, available forms of testosterone.

Like-named read-outs stand apart in the source and are kept apart here.

For the molecule `CCC(=O)Oc1ccc2c(c1)CC[C@@H]1[C@@H]2CC[C@]2(C)[C@@H](OC(=O)CC)CC[C@@H]12` [Estradiol dipropionate], the Half-life in data set [1] (setting [4]) is reported as more than 5 days.

Take FGF-2: fibroblast growth factor 2: the “histologic or biomechanical characteristics after rotator cuff repair” value with rotator cuff repair is reported as “positively influence histologic or biomechanical characteristics”.

`CCCCCCCCCCC(=O)O[C@H]1CC[C@H]2[C@@H]3CCC4=CC(=O)CC[C@]4(C)[C@H]3CC[C@]12C` [Testosterone undecanoate (PO), Testosterone undecanoate]: the Half-life is 0.0694 days in data set [1] (setting [5]) and 34 days in data set [1] (Table 2, available forms of testosterone, listed as Testosterone undecanoate (IM)).

Turning to `CCCCCCC(=O)O[C@H]1CC[C@H]2[C@@H]3CCc4cc(O)ccc4[C@H]3CC[C@]12C` [Estradiol enanthate], in data set [1] (setting [4]), the Half-life is 5 to 8 days.

As to `N#Cc1ccc(N2CCC[C@@H]2[C@@H](O)C(F)(F)F)cc1C(F)(F)F` [Ligandrol], in data set [1] (setting [5]), the Half-life is 1 to 1.5 days.

On to `CCC(=O)O[C@H]1CC[C@H]2[C@@H]3CCC4=CC(=O)CC[C@]4(C)[C@H]3CC[C@]12C` [Testosterone propionate], for which the Half-life in data set [1] (setting [5]) is recorded as 2 days.

Regarding “TGF-beta1: transforming growth factor beta1”, in the data set on rotator cuff repair, the “histologic or biomechanical characteristics after rotator cuff repair” value was “positively influence histologic or biomechanical characteristics”.

With `C[C@]12CC[C@H]3[C@@H](CCC4=CC(=O)CC[C@@]43C)[C@@H]1CC[C@@H]2OC(=O)CCC1CCCC1` [Testosterone cypionate], the Half-life in data set [1] (setting [5]) is listed as 8 days.

With `CCN(CC)CCOc1ccc(C(=C(Cl)c2ccccc2)c2ccccc2)cc1` [Clomiphene (SERM), Clomiphene], the Half-life in data set [1] (setting [4]) is 5 days.

Take `C[C@](O)(COc1ccc(C#N)cc1)C(=O)Nc1ccc(C#N)c(C(F)(F)F)c1` [Enobosarm]: the Half-life in data set [1] (setting [5]) was 0.0694 days.

`CCCCCCCCCCC(=O)O[C@H]1CC[C@H]2[C@@H]3CCc4cc(O)ccc4[C@H]3CC[C@]12C` [Estradiol undecylate]: the Half-life in data set [1] (setting [4]) is recorded as 1-2 mon.

For `CCCCCCC(=O)O[C@H]1CC[C@H]2[C@@H]3CCC4=CC(=O)CC[C@]4(C)[C@H]3CC[C@]12C` [Testosterone enanthate], the Half-life in data set [1] (setting [5]) is 4.5 days.

Regarding `C[C@]12CC[C@@H]3c4ccc(O)cc4CC[C@H]3[C@@H]1CC[C@@H]2OC(=O)CCC1CCCC1` [Estradiol cypionate], the Half-life in data set [1] (setting [4]) was 8 to 10 days.

Take `C[C@]12CC[C@@H]3c4ccc(OC(=O)c5ccccc5)cc4CC[C@H]3[C@@H]1CC[C@@H]2O` [Estradiol benzoate]: the Half-life in data set [1] (setting [4]) is 2 to 5 days.

As for `CC/C(=C(/CC)c1ccc(O)cc1)c1ccc(O)cc1` [DES, diethylstilbestrol], the “osteogenic, angiogenic, and tendon modulation gene expression” value in data set [2] was “further increased”. For the same molecule, the “areas of calcified and uncalcified fibrocartilage” value with rotator cuff enthesis (Repair Only vs Control and Repair+DES, p<0.03) is recorded as “significantly greater in the Repair Only group”. For the same molecule, the “bone formation within the humeral head” value in the data set on rotator cuff enthesis (Repair+DES vs Repair Only and Control (intact tendon), p<0.001) is reported as “increase of bone formation”.

`CC/C(=C(\c1ccccc1)c1ccc(OCCN(C)C)cc1)c1ccccc1` [Tamoxifen (SERM), Tamoxifen]: the Half-life in data set [1] (setting [4]) was 5 to 7 days.

For `C[C@]12CC[C@H]3[C@@H](CCC4=CC(=O)CC[C@@]43C)[C@@H]1CC[C@@H]2O` [testosterone], the “increase in risk of having an infection after an RCR” value in data set [3] stood at 75%.

Turning to `CCCCC(=O)O[C@H]1CC[C@H]2[C@@H]3CCc4cc(O)ccc4[C@H]3CC[C@]12C` [Estradiol valerate], in data set [1] (setting [4]), the Half-life is 4 to 5 days.

B1: PDGF-BB: platelet derived growth factor-BB (protein, UniProt P01127 82-190, looked up)
Platelet-derived growth …: SLGSLTIAEPAMIAECKTRTEVFEISRRLIDRTNANFLVWPPCVEVQRCSGCCNNRNVQCRPTQVQLRPVQVRKIEIVRKKPIFKKATVTLEDHLACKCETVAAARPVT
With B1, in the data set with rotator cuff repair, the “histologic or biomechanical characteristics after rotator cuff repair” value is reported as “positively influence histologic or biomechanical characteristics”.
